Publication PMC4349624, “In vitro synergistic effect of fluoroquinolone analogues in combination with artemisinin against Plasmodium falciparum; their antiplasmodial action in rodent malaria model” (Malaria Journal, 2015)
Converted amounts (≈) assume the structure as drawn. “And” between values parts separate entries of the source, which are not always exact repeats. Equal entries are not always repeated. “Also recorded” adds a separate entry of the source. Where two headings read alike, the source gives them in different places.

What was measured:
[1] = tested on: 3D7 strain of P. falciparum; conditions: cited from earlier work
BALB/c mice = test: LD50 test; assay type: in vivo; conditions: ip
Experimental: Therapeutic Index (TI) values were determined by the formula: TherapeuticIndexTI=MedianlethaldoseLD50/MedianeffectivedoseED50

Plasmodium berghei ANKA = test: Peters' four-day suppressive test in BALB/c mice; assay type: in vivo; conditions: ip, once daily days 0 to 3, BALB/c mice; n = 5
Text: Evaluation of the curative potential of the fluoroquinolone derivatives was done using the method described by Ryley and Peters, 1970 (rodent malaria four-day suppressive test; Peters’ four-day suppressive test). Rodent malaria parasite Plasmodium berghei ANKA was used.
[…] BALB/c inbred albino mice (25–30 g) of the male sex were obtained from the Animal Facility Centre of the Department of Zoology, University of Delhi. The animals were fed ad libitum with standard feed and had free access to water. They were maintained under standard conditions of humidity, temperature (25°C) and 12 hours light/darkness cycles. The animals were acclimatized for two weeks before the commencement of the study and were ensured to exclude all zoonotic agents.
Day 0: Heparinized blood was withdrawn from an infected donor mouse with approximately 25-30% parasitemia, and diluted in 1x PBS to 10^8 parasitized erythrocytes per mL. An aliquot of 0.2 mL (=2 × 10^7 parasitized erythrocytes) of this suspension was injected intraperitoneally (ip) into experimental groups of five mice each. One to three hours post-infection, the experimental groups were treated with varying doses of each of the test compounds (0.5, 1, 10, 25 mg/kg BW) by the ip route. Each compound was made to strength of 5 mg/ml stock solution in 10% DMSO and administered according to desired concentration and individual body weight. Artemisinin was given to the standard drug group and 0.2 mL of normal saline to the negative control group.
Day 1, 2 and 3: 24 hours, 48 hours and 72 hours post-infection, the experimental groups of mice were treated again with the same dose and by the same route as on day 0.
Day 4: 24 hours after the last treatment (i.e., 96 hours post-infection), blood was drawn from the tail region of mice and smears were prepared. […] Differences in parasitemia percentage between treated groups and untreated animals were analysed by a one-way ANOVA test using IBM SPSS Statistics 16.0 and differences considered significant if P < 0.05. […] Percentinhibitionactivity=100–Meanparasitemia/control×100
Untreated control mice typically died approximately one week after infection. […] The mean survival time was calculated in comparison to untreated (Normal saline) and standard drug (artemisinin) treated groups. Differences in survival time between treated groups and untreated animals were analysed by Log-rank (Mantel-Cox) test using GraphPad Prism 5 and differences considered significant if P <0.005. Observations concerning adverse effects due to the compounds were recorded.

[2] = tested on: Plasmodium falciparum 3D7 strain; test: antiplasmodial interaction assay, fixed-ratio combination isobologram method with artemisinin; assay type: cell-based; conditions: for Mean ƩFIC ± SD: combination with artemisinin, over the fixed-ratio combinations; for antiplasmodial interaction with artemisinin (in words): four fixed-ratio combinations, in vitro; for Drug B Mean FIC50 ± SE: n = 3
Experimental: Stock culture of malaria parasite P. falciparum 3D7 strain (chloroquine sensitive) was continuously maintained in vitro using a CO2 incubator under low-oxygen concentration (3%) and high carbon dioxide atmosphere (4%) along with nitrogen (93%), incubated at a temperature of 37°C. The parasites were maintained on O^+ human red blood cells suspended in a complete culture medium. Each litre of RPMI-1640 aqueous culture medium was prepared with 10.4 g of powdered RPMI-1640 (with glutamine but without sodium bicarbonate), 5.94 g of HEPES buffer, 1 g of dextrose and 40 mg of gentamicin. Complete medium was constituted just before use by adding sterile 5% sodium bicarbonate at the rate of 4 ml per 96 ml, and supplemented with 10% (v/v) pooled O^+ human serum. Infected erythrocytes were suspended in this culture media initiated at a haematocrit value of 5% and parasitemia was kept between 2 and 4% with sub-culturing done beyond 5%. Medium was changed once a day and percentage parasitemia was monitored using Giemsa stained slides.
Artemisinin (Sigma Aldrich, USA) was prepared in DMSO to get the stock solution of 1 mg/ml strength. Compounds 10, 12 and 18 were synthesized according to the procedure described by Dixit et al. and each compound was made to strength of 1 mg/ml stock solution in DMSO. The stock solutions were diluted on the day of experiment to get the desired concentrations for each compound. The highest amount of DMSO in diluted concentrations was 0.125%, and had no effect on parasite growth.
In each combination assay, two compounds (Compound A, artemisinin and Compound B, a fluoroquinolone derivative or norfloxacin) were combined in four fixed ratios (4:1, 3:2, 2:3, and 1:4).
Compound dilutions of each combination solution were made in sterile, flat-bottomed, 96-well tissue culture plates as described by Fivelman et al.. Six times two-fold serial dilution was done for each combination in triplicate. Each well contained a total volume of 200 μl of complete culture medium with or without compound and pre-synchronized infected red blood cells (1% parasitemia at 2.5% haematocrit). Control cultures (without compound) were maintained on the same plate in triplicate. Two 96-well plates (for six combinations) were used for each combination experiment. The plates were stacked in a CO2 incubator and incubated at 37°C for 48 hours.
After 48-hour incubation, thin blood smear slides were prepared, air dried, methanol fixed, and stained in Giemsa solution for 40 min. After staining, slides were removed from coupling jar, washed in running tap water and air dried. The Giemsa-stained slides were examined for counting the number of parasites in random adjacent microscopic fields, equivalent to about 4,000 erythrocytes at 1,000 × magnification. Per cent parasitemia was calculated. Reproducibility of counts was checked by two other readers to maintain the quality control.
For each combination assay, IC50 was calculated from two sets of concentration response graphs, each containing compound alone curve and four combination curves.
ƩFIC <1 represents synergism, ƩFIC > = 1 and <2 represents additive interaction, ƩFIC > = 2 and <4 represents slight antagonism while ƩFIC > = 4 represents marked antagonism.

host cell = tested on: host cell; parameters: method as in PMID 22424611; conditions: read-out: in vitro host cell cytotoxicity IC50; cited from earlier work
[3] = P. falciparum 3D7, in vitro, read-out: IC50 (equivalent in μM)
[4] = artemisinin (A) : drug B ratio 1:4
[5] = artemisinin (A) : drug B ratio 2:3
[6] = artemisinin (A) : drug B ratio 3:2
[7] = artemisinin (A) : drug B ratio 4:1
[8] = ratio A:B 1:4, combined with artemisinin (drug A)
[9] = ratio A:B 2:3, combined with artemisinin (drug A)
[10] = ratio A:B 3:2, combined with artemisinin (drug A)
[11] = ratio A:B 4:1, combined with artemisinin (drug A)
[12] = fluoroquinolones in clinical use, reported values, read-out: reported IC50 against 3D7 strain of P. falciparum in vitro

Row | Compound | IC50 (inhibited the parasite multiplication rate to 50%) ± SE ([1]; P. falciparum 3D7, in vitro) [mg/L] | IC50 [1, 3] [µM] | Therapeutic Index (TI) = LD50/ED50 (BALB/c mice) | Mean ED50 ± SE (Plasmodium berghei ANKA) | interaction (class from Σ FICs) [2, 4] | Σ FICs [2, 4] | interaction (class from Σ FICs) [2, 5] | Σ FICs [2, 5] | interaction (class from Σ FICs) [2, 6] | Σ FICs [2, 6] | interaction (class from Σ FICs) [2, 7] | Σ FICs [2, 7] | antiplasmodial interaction with artemisinin (in words) [2] | Drug B Mean FIC50 ± SE ([2]; ratio A:B 0:5, drug B alone) | Drug B Mean FIC50 ± SE [2, 8] | Drug B Mean FIC50 ± SE [2, 9] | Drug B Mean FIC50 ± SE [2, 10] | Drug B Mean FIC50 ± SE [2, 11] | IC50 (host cell) [µM] | IC50 [1, 12] [µM] | other results
1 | CCOC(=O)c1cn(CC#N)c2cc(Cl)c(F)cc2c1=O [Compound 10] | 2.56 ± 0.30 (≈ 8.29 µM) | 8.69 | 346.32 | 2.31 mg/kg BW and 2.31 ± 0.19 mg/kg BW | SYN (ƩFIC <1 represents synergism) | 0.58 | ADD (ƩFIC > = 1 and <2 represents additive interaction) | 1.01 | SYN (ƩFIC <1 represents synergism) | 0.80 | SYN (ƩFIC <1 represents synergism) | 0.76 | highly synergistic interactions; also recorded: synergistic antiplasmodial interaction in three of the four fixed-ratio combinations evaluated and additive in the remaining one | 0.93 ± 0.04 | 0.41 ± 0.03 | 0.53 ± 0.03 | 0.22 ± 0.02 | 0.15 ± 0.02 | 143 |  | Mean ƩFIC ± SD [2]: 0.788 ± 0.177
2 | CCOC(=O)c1cn(Cc2c[nH]nn2)c2cc(Cl)c(F)cc2c1=O [Compound 12] | 1.33 ± 0.67 (≈ 3.79 µM) | 3.79 | 258.90 | 3.09 mg/kg BW and 3.09 ± 0.22 mg/kg BW | SYN (ƩFIC <1 represents synergism) | 0.56 | ADD (ƩFIC > = 1 and <2 represents additive interaction) | 1.27 | SYN (ƩFIC <1 represents synergism) | 0.83 | SYN (ƩFIC <1 represents synergism) | 0.78 | highly synergistic interactions | 1.11 ± 0.08 | 0.32 ± 0.01 | 0.77 ± 0.03 | 0.23 ± 0.02 | 0.15 ± 0.003 | 171 |  | antiplasmodial interaction with artemisinin (in words) ([2]; listed as compound 12): synergistic interaction in three combinations and additive in one
3 | CCOC(=O)c1cn(Cc2cccc(Cl)c2)c2cc(Cl)c(F)cc2c1=O [Compound 18] | 2.73 ± 0.23 (≈ 6.92 µM) | 6.93 | 307.69 | 2.60 mg/kg BW and 2.60 ± 0.18 mg/kg BW | SYN (ƩFIC <1 represents synergism) | 0.55 | ADD (ƩFIC > = 1 and <2 represents additive interaction) | 1.15 | ADD (ƩFIC > = 1 and <2 represents additive interaction) | 1.02 | SYN (ƩFIC <1 represents synergism) | 0.73 | synergistic in two combinations, while additive in the other two | 0.97 ± 0.08 | 0.33 ± 0.02 | 0.66 ± 0.03 | 0.47 ± 0.03 | 0.16 ± 0.01 | 129 |  | 
4 | CCn1cc(C(=O)O)c(=O)c2cc(F)c(N3CCNCC3)cc21 [Norfloxacin, norfloxacin, reference compound] |  |  |  |  | SYN (ƩFIC <1 represents synergism) | 0.74 | ADD (ƩFIC > = 1 and <2 represents additive interaction) | 1.53 | SYN (ƩFIC <1 represents synergism) | 0.81 | ADD (ƩFIC > = 1 and <2 represents additive interaction) | 1.36 | synergistic interaction in two combinations, while additive in the remaining two | 0.98 ± 0.04 | 0.60 ± 0.02 | 0.87 ± 0.03 | 0.52 ± 0.04 | 0.45 ± 0.02 |  | 53.9 | Mean ƩFIC ± SD [2]: 1.11 ± 0.394
5 | NC1CCN(c2c(F)cc3c(=O)c(C(=O)O)cn(C4CC4)c3c2Cl)C1 (stereo not drawn) [clinafloxacin, reference compound] |  |  |  |  |  |  |  |  |  |  |  |  |  |  |  |  |  |  |  | 37.5 | 
6 | CCn1cc(C(=O)O)c(=O)c2cc(F)c(N3CCNCC3)nc21 [enoxacin, reference compound] |  |  |  |  |  |  |  |  |  |  |  |  |  |  |  |  |  |  |  | 121 | 
7 | CC1COc2c(N3CCN(C)CC3)c(F)cc3c(=O)c(C(=O)O)cn1c23 (stereo not drawn) [ofloxacin, reference compound] |  |  |  |  |  |  |  |  |  |  |  |  |  |  |  |  |  |  |  | 152 | 
